According to PMC2223489, “Influence of single and multiple doses of amifostine on the efficacy and the pharmacokinetics of carboplatin in mice” (British Journal of Cancer, 1997):

Tests used:
[1] = set-up: method as in Treskes et al, 1994; conditions: given on days 0 and 7; allowing 10% weight loss within 2 weeks after the first injection; ref Treskes et al, 1994; cited from earlier work
[2] = test system: human ovarian cancer xenograft A2780; assay: Anti-tumour activity in s.c. A2780 xenografts in nude mice; format: in vivo; conditions: for Growth inhibition (%) (Day): Table 1, carboplatin 60 mg kg-1 i.v. and/or amifostine 3 x 200 mg kg-1 i.p., weekly x 2; for Anti-tumour activity (in words): A2780, carboplatin at the MTD of 60 mg kg-1, amifostine given three times
Experimental: (§1) British Joumal of Cancer (1997) 75(10), 1439-1446 ? […] The present study was carried out in well-established human ovarian cancer xenografts OVCAR-3, A2780 and FMa grown subcutaneously in the nude mouse. […] Its anti-tumour activity is assumed to result from the formation of platinum (Pt)-DNA adducts. The clinical use of carboplatin is limited by myelosuppression at a dose in the steep part of the dose-response curve. Therefore, much effort has been put into reducing the toxic side-effects to allow the administration of higher doses of carboplatin. Amifostine [Ethyol, WR-2721, S-2-(3-aminopropylamino)- ethylphosphorothioic acid], initially developed as a radioprotector, is approved for use as a protector against chemotherapy-induced toxicities in the USA and Europe (van der Vijgh and Peters, 1994). […] Such an approach is incorporated into clinical trials in which amifostine is given three times, just before and 2 and 4 h after carboplatin (Betticher et al, 1995; Vermorken et al, 1995). To date, clinical data are available for only a small number of patients. The Amifostine H2N - (CH2)3 - NH - (CH2)2 - S - P03H2 41 alkaline phosphatase WR-1 065 H2N - (CH2)3 - NH - (CH2)2 - S - H 4, oxidation Disulphides H2N - (CH2)3 - NH - (CH2)2 - S - S - R Figure 1 Structural formulas of amifostine, its active metabolite WR-1 065 and the disulphides [with WR-1 065 itself or with endogenous thiols (RSH)] […] However, the influence of multiple doses of amifostine on the anti-tumour activity of carboplatin was not studied. In the present experiments we investigated the influence of multiple doses of amifostine on the efficacy of carboplatin in tumour-bearing nude mice. We also investigated the influence of one and three doses of amifostine on the pharmacokinetics of carboplatin and the formation of Pt-DNA adducts in order to inter- pret the efficacy of carboplatin in the presence of amifostine. Furthermore, we determined the influence of a single dose and multiple doses of amifostine on the body temperature in nude mice.

[3] = Body temperature (intrarectal) in non-tumour-bearing nude mice; format: in vivo; conditions: carboplatin 60 mg kg-1 alone; in the 24 h following injection
Experimental: British Joumal of Cancer (1997) 75(10), 1439-1446 ? […] The present study was carried out in well-established human ovarian cancer xenografts OVCAR-3, A2780 and FMa grown subcutaneously in the nude mouse. […] Its anti-tumour activity is assumed to result from the formation of platinum (Pt)-DNA adducts. The clinical use of carboplatin is limited by myelosuppression at a dose in the steep part of the dose-response curve. Therefore, much effort has been put into reducing the toxic side-effects to allow the administration of higher doses of carboplatin. Amifostine [Ethyol, WR-2721, S-2-(3-aminopropylamino)- ethylphosphorothioic acid], initially developed as a radioprotector, is approved for use as a protector against chemotherapy-induced toxicities in the USA and Europe (van der Vijgh and Peters, 1994). […] Such an approach is incorporated into clinical trials in which amifostine is given three times, just before and 2 and 4 h after carboplatin (Betticher et al, 1995; Vermorken et al, 1995). To date, clinical data are available for only a small number of patients. […] Furthermore, we determined the influence of a single dose and multiple doses of amifostine on the body temperature in nude mice.

[4] = Toxicity (weight loss, toxic deaths) in xenograft-bearing nude mice; format: in vivo, female athymic nude mice; conditions: weekly x 2
Experimental: as §1

[5] = Pharmacokinetics of total platinum in OVCAR-3-bearing nude mice (flameless AAS); format: in vivo; conditions: 0.5-24 h, carboplatin 60 mg kg-1 i.v. alone or + single dose amifostine 200 mg kg-1 i.p.
Experimental: as §1

[6] = test system: human ovarian cancer xenograft OVCAR-3; assay: Anti-tumour activity in s.c. OVCAR-3 xenografts in nude mice; format: in vivo; conditions: for Growth inhibition (%) (Day): weekly x 2; for Anti-tumour activity (in words): OVCAR-3, carboplatin at the MTD of 60 mg kg-1, amifostine given three times
Experimental: as §1

DNA = assay: Pt-DNA adduct levels in tissues of OVCAR-3-bearing nude mice (competitive ELISA); format: in vivo; conditions: carboplatin 60 mg kg-1 alone or plus one dose of amifostine
Experimental: as §1

[7] = test system: human ovarian cancer xenograft FMa; assay: Anti-tumour activity in s.c. FMa xenografts in nude mice; format: in vivo; conditions: for Anti-tumour activity (in words): carboplatin at the MTD of 60 mg kg-1, amifostine given three times; for Growth inhibition (%) (Day): weekly x 2
Experimental: as §1

[8] = A2780-bearing mice, Table 1, carboplatin 60 mg kg-1 i.v. and/or amifostine 3 x 200 mg kg-1 i.p.
[9] = FMa-bearing mice, Table 1, carboplatin 60 mg kg-1 i.v. and/or amifostine 3 x 200 mg kg-1 i.p.
[10] = OVCAR-3-bearing mice, Table 1, carboplatin 60 mg kg-1 i.v. and/or amifostine 3 x 200 mg kg-1 i.p.
[11] = OVCAR-3, day 28, Table 1, carboplatin 60 mg kg-1 i.v. and/or amifostine 3 x 200 mg kg-1 i.p.
[12] = OVCAR-3, day 35, Table 1, carboplatin 60 mg kg-1 i.v. and/or amifostine 3 x 200 mg kg-1 i.p.
[13] = day 29, Table 1, carboplatin 60 mg kg-1 i.v. and/or amifostine 3 x 200 mg kg-1 i.p.
[14] = day 36, Table 1, carboplatin 60 mg kg-1 i.v. and/or amifostine 3 x 200 mg kg-1 i.p.

| Structure (SMILES) | Growth inhibition (%) (Day) ([2]; A2780, day 11) | Growth inhibition (%) (Day) ([2]; A2780, day 14) | Anti-tumour activity (in words) [2] | Toxic deaths [4, 8] | Toxic deaths [4, 9] | Toxic deaths [4, 10] | Growth inhibition (%) (Day) [6, 11] | Growth inhibition (%) (Day) [6, 12] | Anti-tumour activity (in words) [6] | Anti-tumour activity (in words) [7] | Growth inhibition (%) (Day) [7, 13] | Growth inhibition (%) (Day) [7, 14] | also measured |
| --- | --- | --- | --- | --- | --- | --- | --- | --- | --- | --- | --- | --- | --- |
| N.N.O=C([O-])C1(C(=O)[O-])CCC1.[Pt+2] [carboplatin, cis-diammine( 1,1 -cyclobutanedicarboxylato)plat- inum(II)] | 28.8 | 14.0 | no significant influence | 0/5 | 0/6 | 0/5 | 93.2 | 89.0 | active | active | 90.3 | 89.3 | Maximum tolerated dose (MTD) of carboplatin [1]: 60 mg kg-'; Body temperature (not decreased) [3]: 37 0C; Toxic deaths ([4]; FMa-bearing mice, Table 2, carboplatin 60 mg kg-1 i.v. alone or + amifostine 1 x 200 mg kg-1 i.p.): 0/6; Toxic deaths ([4]; OVCAR-3-bearing mice, Table 2, carboplatin 60 mg kg-1 i.v. alone or + amifostine 1 x 200 mg kg-1 i.p.): 0/6; AUC of total platinum in OVCAR-3 tumour tissue [5]: 146.8 nmol g(-1) x h; AUC of total platinum in kidney [5]: 368.3 nmol g(-1) x h; AUC of total platinum in liver [5]: 236.4 nmol g(-1) x h; AUC of total platinum in plasma ultrafiltrate [5]: 18.2 microM x h; Growth inhibition (%) (Day) ([6]; OVCAR-3, day 20, Table 2, carboplatin 60 mg kg-1 i.v. alone or + amifostine 1 x 200 mg kg-1 i.p.): 88.5%; Growth inhibition (%) (Day) ([6]; OVCAR-3, day 27, Table 2, carboplatin 60 mg kg-1 i.v. alone or + amifostine 1 x 200 mg kg-1 i.p.): 92.4%; Ratio AUC Pt-DNA adducts/AUC total platinum, kidney (DNA): 0.51; Ratio AUC Pt-DNA adducts/AUC total platinum, liver (DNA): 0.23; Ratio AUC Pt-DNA adducts/AUC total platinum, tumour tissue (DNA): 0.56; Growth inhibition (%) (Day) ([7]; day 21, Table 2, carboplatin 60 mg kg-1 i.v. alone or + amifostine 1 x 200 mg kg-1 i.p.): 79.2%; Growth inhibition (%) (Day) ([7]; day 28, Table 2, carboplatin 60 mg kg-1 i.v. alone or + amifostine 1 x 200 mg kg-1 i.p.): 76.0% |
| NCCCNCCSP(=O)(O)O [amifostine, S-2-(3-aminopropylamino)-ethylphosphorothioic acid] | 31.1 | 17.4 | did not have any anti-tumour activity | 2/6 | 0/6 | 1/6 | 0.0 | 0.0 | did not have any anti-tumour activity | did not have any anti-tumour activity | 20.3 | 21.5 |  |
